14 compounds from US12630565B2, “DNA-dependent protein kinase inhibitor” (DIZAL (JIANGSU) PHARMACEUTICAL CO., LTD., priority 2019, dated 2026) can be followed below.

One series deals with Rat hepatocyte. Put plainly: Metabolic stability assay (rat hepatocyte Clint). Format: in vitro ADME. The settings on record: 1 μM compound, cryopreserved hepatocytes 1 million cells per mL. The gist of the method: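 Compound at 1 μM incubated with cryopreserved rat hepatocytes, 1 million cells/mL, sampled 0–120 min with acetonitrile quench and LC-MS/MS quantitation. CLint (μL/min/E6) derived from elimination rate constant and half-life of parent disappearance, scaled by cell concentration.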

Series [1] relates to MDCKII-MDR1-BCRP cell monolayers. Put plainly: MDCKII-MDR1-BCRP efflux assay. The settings on record: 5 μM compound, 120 min, HBSS pH 7.4. Format: in vitro ADME. In a few lines: (§1)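 Bidirectional (A-B, B-A) transport of 5 μM compound across MDCKII-MDR1-BCRP monolayers in HBSS, 25 mM HEPES pH 7.4, ~37° C. for 120 min, triplicate; donor and receiver concentrations measured, monolayer integrity checked with Lucifer yellow. Papp and efflux ratio calculated.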

The target in series [2] is Full length human DNAPK protein (Homo sapiens, UniProt P78527). Put plainly: DNA-PK enzymatic assay (TR-FRET). The following applies: 10 μM ATP, 1.6 μM peptide substrate. Format: biochemical.
A short description of series [3]: Metabolic stability assay (human microsomal Clint). Type of series: in vitro ADME. The settings on record: 1 mg/mL microsomes, 1 mM NADPH, 37° C.; for Human liver microsomal CLint: 1 μM compound; for microsomal CLint at 1 μM: human, pooled human liver microsomes, pH 7.4, 1 μM compound. The gist of the method: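 Compound (1 μM) incubated at 37 °C with pooled human liver microsomes (1 mg/mL) and 1 mM NADPH in 100 mM phosphate, pH 7.4. Samples quenched in acetonitrile at 0–30 min and analysed by LC-MS/MS for parent loss. CLint reported in μl/min/mg.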
In general terms: Liver microsomes are a subcellular fraction often used to study metabolism.

For another series, the system named is MDR1, BCRP. Put plainly: MDCKII-MDR1-BCRP efflux assay. Type of series: in vitro ADME. The settings on record: dog, pH 7.4, 5 μM compound, HBSS pH 7.4, read-out: MDCK-Mdr1-BCRP efflux ratio. In a few lines: as §1

pIC50: −log10 of the molar value.

Turning to `Cc1cc2ncnn2cc1Nc1ncc2c(C)nn(C3CCOC(C)C3)c2n1` (single isomer, unassigned) [Example 36, 3-methyl-N-(7-methyl-[1,2,4]triazolo[1,5-a]pyridin-6-yl)-1-(2-methyltetrahydro-2H-pyran-4-yl)-1H-pyrazolo[3,4-d]pyrimidin-6-amine], the “Rat hepatocyte CLint (μl/min/10^−6 cells)” value (“Rat hepatocyte CLint” for short) in the series with Rat hepatocyte is on record as 11.6 μl/min/10^−6 cells. For the same compound, the MDCK-Mdr1-BCRP efflux ratio in series [1] was determined as 2.1. The compound further had a pIC50 in series [2] of 8.85. Besides, the “Human liver microsomal CLint” value in series [3] worked out at 51.5 µL/min/mg.
Consider `Cc1cc2ncnn2cc1Nc1ncc2c(C)nn(CC3CCCO3)c2n1` (single isomer, unassigned) [Example 51, 3-methyl-N-(7-methyl-[1,2,4]triazolo[1,5-a]pyridin-6-yl)-1-((tetrahydrofuran-2-yl)methyl)-1H-pyrazolo[3,4-d]pyrimidin-6-amine], for which the “Rat hepatocyte CLint” value in the series with Rat hepatocyte is on record as below 1 μl/min/10^−6 cells. Also, the MDCK-Mdr1-BCRP efflux ratio in series [1] is on record as 1.9. In series [2], this compound gave a pIC50 of 7.92. The “Human liver microsomal CLint” value in series [3] stood at 20.9 µL/min/mg.
As for `Cc1cc2ncnn2cc1Nc1ncc2c(C)nn(C3CC(C)OC(C)C3)c2n1` (single isomer, unassigned) [Example 86-1, 1-(2,6-dimethyltetrahydro-2H-pyran-4-yl)-3-methyl-N-(7-methyl-[1,2,4]triazolo[1,5-a]pyridin-6-yl)-1H-pyrazolo[3,4-d]pyrimidin-6-amine], the “Rat hepatocyte CLint” value in the series with Rat hepatocyte amounted to 42.7 μl/min/10^−6 cells. The MDCK-Mdr1-BCRP efflux ratio in series [1] came out at 0.9. In addition, the pIC50 in series [2] was 8.52. Further, in series [3], the “Human liver microsomal CLint” value is above 300 µL/min/mg.
Regarding `Cc1cc2ncnn2cc1Nc1ncc2c(C)nn(C3CCOCC3C)c2n1` (single isomer, unassigned) [Example 115, 3-methyl-N-(7-methyl-[1,2,4]triazolo[1,5-a]pyridin-6-yl)-1-(3-methyltetrahydro-2H-pyran-4-yl)-1H-pyrazolo[3,4-d]pyrimidin-6-amine], in the series with Rat hepatocyte, the “Rat hepatocyte CLint” value came out at 7.7 μl/min/10^−6 cells. Also, the MDCK-Mdr1-BCRP efflux ratio in series [1] amounted to 2. In addition, the pIC50 in series [2] was 8.72. Also, the “Human liver microsomal CLint” value in series [3] was 53.5 µL/min/mg.
On to `COC1CCC(n2nc(C)c3cnc(Nc4cn5ncnc5cc4C)nc32)C1` (single isomer, unassigned) [Example 109, 1-(3-methoxycyclopentyl)-3-methyl-N-(7-methyl-[1,2,4]triazolo[1,5-a]pyridin-6-yl)-1H-pyrazolo[3,4-d]pyrimidin-6-amine], for which the “Rat hepatocyte CLint” value in the series with Rat hepatocyte turned out to be 11.9 μl/min/10^−6 cells. Further, the MDCK-Mdr1-BCRP efflux ratio in series [1] amounted to 2. This compound also showed a pIC50 in series [2] of 8.40. Besides, the “Human liver microsomal CLint” value in series [3] worked out at 87.2 µL/min/mg.
Turning to `Cc1cc2ncnn2cc1Nc1ncc2c(C)nn(CC3CCOC3)c2n1` (single isomer, unassigned) [Example 53, 3-methyl-N-(7-methyl-[1,2,4]triazolo[1,5-a]pyridin-6-yl)-1-((tetrahydrofuran-3-yl)methyl)-1H-pyrazolo[3,4-d]pyrimidin-6-amine], the “Rat hepatocyte CLint” value in the series with Rat hepatocyte is given as 5.0 μl/min/10^−6 cells. The MDCK-Mdr1-BCRP efflux ratio in series [1] came to 2.4. Besides, in series [2], the pIC50 was 8.14. Also, in series [3], the “Human liver microsomal CLint” value amounted to 15.2 µL/min/mg.
As to `Cc1cc2ncnn2cc1Nc1ncc2c(C)nn(C3CCOCC3C)c2n1` (single isomer, unassigned) [Example 114, 3-methyl-N-(7-methyl-[1,2,4]triazolo[1,5-a]pyridin-6-yl)-1-(3-methyltetrahydro-2H-pyran-4-yl)-1H-pyrazolo[3,4-d]pyrimidin-6-amine], the “Rat hepatocyte CLint” value with Rat hepatocyte is 8.5 μl/min/10^−6 cells. Besides, in series [1], the MDCK-Mdr1-BCRP efflux ratio was 2. Further, in series [2], the pIC50 was 8.77. For the same compound, the “Human liver microsomal CLint” value in series [3] was 50.4 µL/min/mg.
For `Cc1cc2ncnn2cc1Nc1ncc2c(C)nn(C3CCOC3)c2n1` (single isomer, unassigned) [Example 49, 3-methyl-N-(7-methyl-[1,2,4]triazolo[1,5-a]pyridin-6-yl)-1-(tetrahydrofuran-3-yl)-1H-pyrazolo[3,4-d]pyrimidin-6-amine], the “Rat hepatocyte CLint” value in the series with Rat hepatocyte is below 1 μl/min/10^−6 cells. Further, the MDCK-Mdr1-BCRP efflux ratio in series [1] amounted to 3.4. In series [2], this compound showed a pIC50 of 8.77. In series [3], the “Human liver microsomal CLint” value amounted to 8.7 µL/min/mg.
On to `Cc1cc2ncnn2cc1Nc1ncc2c(C)nn(C3CCCOC3)c2n1` (single isomer, unassigned) [Example 30, 3-methyl-N-(7-methyl-[1,2,4]triazolo[1,5-a]pyridin-6-yl)-1-(tetrahydro-2H-pyran-3-yl)-1H-pyrazolo[3,4-d]pyrimidin-6-amine], for which the “Rat hepatocyte CLint” value in the series on Rat hepatocyte was found to be 4.5 μl/min/10^−6 cells. In addition, the MDCK-Mdr1-BCRP efflux ratio in series [1] is 1.2. Besides, in series [2], the pIC50 is 7.80. The “Human liver microsomal CLint” value in series [3] worked out at 17.7 µL/min/mg.
In the case of `COc1ccc(Cn2nc(C)c3cnc(Nc4cn5ncnc5cc4C)nc32)cc1` [Example 18, 1-(4-methoxybenzyl)-3-methyl-N-(7-methyl-[1,2,4]triazolo[1,5-a]pyridin-6-yl)-1H-pyrazolo[3,4-d]pyrimidin-6-amine], in the series on Rat hepatocyte, the “Rat hepatocyte CLint” value came to 31.7 μl/min/10^−6 cells. Besides, in the series on MDR1, BCRP, the efflux ratio at 120 min, 5 μM worked out at 1.1. Further, the pIC50 in series [2] is 8.59. Also, the microsomal CLint at 1 μM in series [3] was determined as 153 µL/min/mg.
Take `Cc1cc2ncnn2cc1Nc1ncc2c(C)nn(CCCOC(F)(F)F)c2n1` [Example 66, 3-methyl-N-(7-methyl-[1,2,4]triazolo[1,5-a]pyridin-6-yl)-1-(3-(trifluoromethoxy)propyl)-1H-pyrazolo[3,4-d]pyrimidin-6-amine]: the “Rat hepatocyte CLint” value with Rat hepatocyte is listed as 15.3 μl/min/10^−6 cells. Moreover, in the series with MDR1, BCRP, the efflux ratio at 120 min, 5 μM turned out to be 1.9. For the same compound, the pIC50 in series [2] is 8.70. The microsomal CLint at 1 μM in series [3] stood at 120 µL/min/mg.
Taken in the same sequence, the figures for `Cc1cc2ncnn2cc1Nc1ncc2c(C)nn(CC(F)F)c2n1` [Example 57, 1-(2,2-difluoroethyl)-3-methyl-N-(7-methyl-[1,2,4]triazolo[1,5-a]pyridin-6-yl)-1H-pyrazolo[3,4-d]pyrimidin-6-amine] were 4.2 μl/min/10^−6 cells, 1.6, 7.91 and 20.9 µL/min/mg.
Taken in the same sequence, the figures for `Cc1cc2ncnn2cc1Nc1ncc2c(C)nn(CC3CC3)c2n1` [Example 38, 1-(cyclopropylmethyl)-3-methyl-N-(7-methyl-[1,2,4]triazolo[1,5-a]pyridin-6-yl)-1H-pyrazolo[3,4-d]pyrimidin-6-amine] were 15.3 μl/min/10^−6 cells, 1.4, 7.95 and 34.2 µL/min/mg.
Regarding `Cc1cc2ncnn2cc1Nc1ncc2c(n1)c(C(C)C)nn2C` [Example 4, 3-isopropyl-1-methyl-N-(7-methyl-[1,2,4]triazolo[1,5-a]pyridin-6-yl)-1H-pyrazolo[4,3-d]pyrimidin-5-amine], the “Rat hepatocyte CLint” value with Rat hepatocyte is listed as 10.7 μl/min/10^−6 cells. Further, the efflux ratio at 120 min, 5 μM in the series with MDR1, BCRP came to 0.9. Moreover, in series [2], the pIC50 was 8.80. Further, the microsomal CLint at 1 μM in series [3] was 47.3 µL/min/mg.

The pIC50 is the IC50 on a negative log10 scale, so that one unit is a factor of ten. For orientation: microsomal CLint means the capacity of the preparation to metabolise the compound, expressed as a volume cleared per time.
